Measurements reported in PMC4279406, “Simultaneous targeting of PI3Kδ and a PI3Kδ-dependent MEK1/2-Erk1/2 pathway for therapy in pediatric B-cell acute lymphoblastic leukemia” (Oncotarget, 2014).

Tests used:
[1] = test system: PDK1 and MEK1/2 association in Raji cells; test: PDK1 immunoprecipitation, association with MEK1/2; format: cell-based, human; conditions: 1 μM, 1 h, anti-PDK1 immunoprecipitation
Method: Figure 5 Inhibition of Erk1/2 phosphorylation by X-370 contributed to its antiproliferative activity (A-C) X-370 inhibited Erk1/2 phosphorylation via PI3K-PDK1-MEK1/2 cascade but not the PI3K-Gab1 positive feedback loop. (A) Raji and SU-DHL-6 cells were exposed to 1 μM X370 for 3 h and protein fraction from cellular membrane was separated using Native Membrane Protein Extraction Kit and probed. WCL: whole cell lysate. (B) Inhibition of PDK1 or MEK1/2 abrogated Erk1/2 phosphorylation. Cells were treated with pharmacological inhibitors of Raf (AZ 628, PLX4032), MEK1/2 (AZD6244), p90RSK (BI-D1870), PI3Kδ (X-370), PDK1 (BX-912), Akt (MK-2206), mTOR (AZD8055) or mTORC1 (Rapamycin) respectively and indicated proteins were detected. (C) X-370 disrupted the association between PDK1 and MEK1/2. Raji cells were treated with 1 μM X370 for 1 h and cell lysates were immunoprecipitated with anti-PDK1 antibody and indicated proteins were detected. WCL: whole cell lysate. […] (E) Raji and Raji MEK DD cells were treated with X-370 for 72 h and cell proliferation was detected by CCK-8 assay. (F) Raji MEK DD cells were treated with X-370 and AZD6244 and cell proliferation was detected by CCK-8 assay. Data were show as mean ± SD of three independent experiments. *: p < 0.05 determined by t-tests at each data point. […]

[2] = test system: panel of 61 protein kinases; test: Panel of 61 protein kinases; format: biochemical, human; conditions: 10 μM
From the text: Utilizing the crystal structure of PI3Kδ, we designed and synthesized a series of compounds in an effort to discover new potent and selective PI3Kδ inhibitors, which bind to PI3Kδ differently from CAL-101. […] The benzimidazole group of X-370 extends into the affinity pocket, where its nitrogen acts as a hydrogen bond acceptor for the primary amine of Lys779. The difluoromethyl group of X-370 points toward Pro758 in the hydrophobic affinity pocket. Instead of wedging between Met752 and Trp760, a binding mode utilized by CAL-101 to generate specificity against PI3Kδ (Figure S1), the pyrrole group of X-370 presses tightly against Trp760. These specific interactions of X-370 with p110δ confer a selective and potent inhibition of PI3Kδ. […]
In vitro kinase profile assays were analyzed by the Kinase Profiler Service (Millipore, United Kingdom) following its guidelines. […] The PI3K kinase activity was determined in the increasing concentration of ATP and X-370 with PI3-Kinase HTRF™ Assay kit (Millipore) as described previously. […]
Cell lysates were probed with indicated antibodies. The IC50 values were calculated based on relative band intensity measured with ImageQuant™ TL (GE Healthcare Life Sciences, Piscataway, NJ). […]

[3] = biological target: T1, Syk (Homo sapiens, UniProt P43405); test: KinaseProfiler protein kinase activity; format: biochemical; conditions: 10 μM X-370
T1 construct: purchased Millipore KinaseProfiler
Method: (§1) In vitro kinase profile assays were analyzed by the Kinase Profiler Service (Millipore, United Kingdom) following its guidelines. A GST-tagged human p110δ and regulatory full-length p85 were co-expressed in insect cell Sf9. Recombinant protein was extracted by affinity purification. The PI3K kinase activity was determined in the increasing concentration of ATP and X-370 with PI3-Kinase HTRF™ Assay kit (Millipore) as described previously. […]
(§2) Table S1: Inhibitory activity of X-370 against protein kinases
(§3) kinome at 10 μM. The relative kianse activity left in the presence of 10 μM were shown (Mi llipore
(§4) Kinase activity (% of control) Kinase activity (% of control) Kinase activity (% of control)
(§5) CDK1/cyclinB 97 Lck activated 89 Ret 125

[4] = biological target: T2, SGK (Homo sapiens, UniProt O00141); test: KinaseProfiler protein kinase activity; format: biochemical; conditions: 10 μM X-370
T2 construct: purchased Millipore KinaseProfiler
T2 sequence (O00141 whole entry): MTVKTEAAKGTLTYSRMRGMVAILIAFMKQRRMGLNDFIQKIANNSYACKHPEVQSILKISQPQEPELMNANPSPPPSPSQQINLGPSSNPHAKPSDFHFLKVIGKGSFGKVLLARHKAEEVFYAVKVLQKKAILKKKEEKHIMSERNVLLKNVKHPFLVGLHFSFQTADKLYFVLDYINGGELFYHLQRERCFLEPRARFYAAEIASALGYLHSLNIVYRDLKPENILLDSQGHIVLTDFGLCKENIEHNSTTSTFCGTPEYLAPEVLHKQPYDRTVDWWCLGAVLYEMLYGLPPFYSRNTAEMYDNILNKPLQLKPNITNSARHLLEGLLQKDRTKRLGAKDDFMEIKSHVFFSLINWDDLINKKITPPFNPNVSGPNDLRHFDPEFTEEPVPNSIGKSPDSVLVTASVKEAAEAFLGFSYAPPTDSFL
Method: as §1, §2, §3, §4, §5

[5] = biological target: T3, Ron (Homo sapiens, UniProt Q04912); test: KinaseProfiler protein kinase activity; format: biochemical; conditions: 10 μM X-370
T3 construct: purchased Millipore KinaseProfiler
Method: as §1, §2, §3, §4, §5

[6] = biological target: T4, JNK1 α1 (Homo sapiens, UniProt P45983); test: KinaseProfiler protein kinase activity; format: biochemical; conditions: 10 μM X-370
T4 construct: purchased Millipore KinaseProfiler
T4 sequence (P45983 1-384 isoform P45983-2): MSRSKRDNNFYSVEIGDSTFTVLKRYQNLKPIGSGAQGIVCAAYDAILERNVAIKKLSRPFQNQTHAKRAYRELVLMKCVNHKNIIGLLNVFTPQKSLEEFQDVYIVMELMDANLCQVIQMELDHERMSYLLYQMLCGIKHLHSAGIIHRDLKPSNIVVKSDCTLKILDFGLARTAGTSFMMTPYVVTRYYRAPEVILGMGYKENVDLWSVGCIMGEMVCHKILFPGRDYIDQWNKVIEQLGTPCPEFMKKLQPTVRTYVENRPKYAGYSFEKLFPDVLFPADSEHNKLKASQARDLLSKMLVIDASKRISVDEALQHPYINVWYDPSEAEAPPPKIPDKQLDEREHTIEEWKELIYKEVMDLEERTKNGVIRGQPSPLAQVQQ
Method: as §1, §2, §3, §4, §5

[7] = biological target: T5, TBK1 (Homo sapiens, UniProt Q9UHD2); test: KinaseProfiler protein kinase activity; format: biochemical; conditions: 10 μM X-370
T5 construct: purchased Millipore KinaseProfiler
T5 sequence (Q9UHD2 whole entry): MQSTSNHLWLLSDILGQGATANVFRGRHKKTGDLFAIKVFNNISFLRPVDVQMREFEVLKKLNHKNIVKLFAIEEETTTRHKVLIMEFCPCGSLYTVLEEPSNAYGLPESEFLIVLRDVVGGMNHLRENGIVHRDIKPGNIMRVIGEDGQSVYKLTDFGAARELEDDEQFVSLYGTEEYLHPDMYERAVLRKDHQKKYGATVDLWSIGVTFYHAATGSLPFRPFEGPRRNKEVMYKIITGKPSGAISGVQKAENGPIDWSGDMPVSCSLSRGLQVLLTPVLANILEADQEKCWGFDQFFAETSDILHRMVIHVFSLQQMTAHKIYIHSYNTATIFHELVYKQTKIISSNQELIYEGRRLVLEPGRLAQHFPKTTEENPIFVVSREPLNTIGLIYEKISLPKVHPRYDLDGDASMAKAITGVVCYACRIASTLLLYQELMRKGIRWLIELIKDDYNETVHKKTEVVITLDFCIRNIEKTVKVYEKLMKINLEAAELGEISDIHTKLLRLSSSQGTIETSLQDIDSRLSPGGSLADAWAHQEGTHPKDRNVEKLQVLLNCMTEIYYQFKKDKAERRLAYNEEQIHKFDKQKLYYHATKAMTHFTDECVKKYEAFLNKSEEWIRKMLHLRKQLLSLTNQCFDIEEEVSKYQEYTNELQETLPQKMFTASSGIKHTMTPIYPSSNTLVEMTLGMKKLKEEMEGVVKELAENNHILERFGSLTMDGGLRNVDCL
Method: as §1, §2, §3, §4, §5

[8] = biological target: T6, Ret (Homo sapiens, UniProt P07949); test: KinaseProfiler protein kinase activity; format: biochemical; conditions: 10 μM X-370
T6 construct: purchased Millipore KinaseProfiler
T6 sequence (P07949 29-1114): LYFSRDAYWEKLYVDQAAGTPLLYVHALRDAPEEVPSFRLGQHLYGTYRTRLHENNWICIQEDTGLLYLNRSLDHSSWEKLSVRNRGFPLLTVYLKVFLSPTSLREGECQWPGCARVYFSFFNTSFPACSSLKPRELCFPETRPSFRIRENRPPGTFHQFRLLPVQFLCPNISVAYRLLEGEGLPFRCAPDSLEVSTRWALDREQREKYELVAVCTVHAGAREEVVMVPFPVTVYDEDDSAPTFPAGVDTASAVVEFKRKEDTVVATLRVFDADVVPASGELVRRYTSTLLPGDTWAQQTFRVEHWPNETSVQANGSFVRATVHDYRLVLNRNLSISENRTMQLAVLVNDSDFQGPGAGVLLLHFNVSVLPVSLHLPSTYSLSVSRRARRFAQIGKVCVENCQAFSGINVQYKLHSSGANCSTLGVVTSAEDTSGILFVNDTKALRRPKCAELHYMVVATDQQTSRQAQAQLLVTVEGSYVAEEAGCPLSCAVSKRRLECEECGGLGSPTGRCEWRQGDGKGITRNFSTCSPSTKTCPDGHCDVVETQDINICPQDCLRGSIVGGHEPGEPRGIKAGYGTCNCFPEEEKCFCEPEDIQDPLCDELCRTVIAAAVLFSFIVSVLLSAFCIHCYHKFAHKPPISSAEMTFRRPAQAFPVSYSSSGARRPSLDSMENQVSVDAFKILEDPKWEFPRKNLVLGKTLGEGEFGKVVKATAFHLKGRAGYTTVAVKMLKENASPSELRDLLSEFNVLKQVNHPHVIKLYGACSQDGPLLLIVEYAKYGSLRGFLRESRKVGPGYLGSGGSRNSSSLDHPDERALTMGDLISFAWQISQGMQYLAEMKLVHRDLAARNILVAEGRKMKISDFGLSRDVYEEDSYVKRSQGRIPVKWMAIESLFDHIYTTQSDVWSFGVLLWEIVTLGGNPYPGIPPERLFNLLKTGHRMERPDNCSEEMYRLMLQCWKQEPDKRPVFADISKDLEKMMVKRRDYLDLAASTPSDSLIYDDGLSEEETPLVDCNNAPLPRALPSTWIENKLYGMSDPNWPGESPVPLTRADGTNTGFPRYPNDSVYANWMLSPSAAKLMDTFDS
Method: as §1, §2, §3, §4, §5

[9] = biological target: T7, MAPK1 (Homo sapiens, UniProt P27361); test: KinaseProfiler protein kinase activity; format: biochemical; conditions: 10 μM X-370
T7 construct: purchased Millipore KinaseProfiler
Method: as §1, §2, §3, §4, §5

[10] = biological target: T8, CaMKI (Homo sapiens, UniProt Q14012); test: KinaseProfiler protein kinase activity; format: biochemical; conditions: 10 μM X-370
T8 construct: purchased Millipore KinaseProfiler
Method: as §1, §2, §3, §4, §5

[11] = biological target: T9, MAPKAP-K2 (Homo sapiens, UniProt P49137); test: KinaseProfiler protein kinase activity; format: biochemical; conditions: 10 μM X-370
T9 construct: purchased Millipore KinaseProfiler
Method: as §1, §2, §3, §4, §5

[12] = biological target: T10, Abl (Homo sapiens, UniProt P00519); test: KinaseProfiler protein kinase activity; format: biochemical; conditions: 10 μM X-370
T10 construct: purchased Millipore KinaseProfiler
T10 sequence (P00519 whole entry): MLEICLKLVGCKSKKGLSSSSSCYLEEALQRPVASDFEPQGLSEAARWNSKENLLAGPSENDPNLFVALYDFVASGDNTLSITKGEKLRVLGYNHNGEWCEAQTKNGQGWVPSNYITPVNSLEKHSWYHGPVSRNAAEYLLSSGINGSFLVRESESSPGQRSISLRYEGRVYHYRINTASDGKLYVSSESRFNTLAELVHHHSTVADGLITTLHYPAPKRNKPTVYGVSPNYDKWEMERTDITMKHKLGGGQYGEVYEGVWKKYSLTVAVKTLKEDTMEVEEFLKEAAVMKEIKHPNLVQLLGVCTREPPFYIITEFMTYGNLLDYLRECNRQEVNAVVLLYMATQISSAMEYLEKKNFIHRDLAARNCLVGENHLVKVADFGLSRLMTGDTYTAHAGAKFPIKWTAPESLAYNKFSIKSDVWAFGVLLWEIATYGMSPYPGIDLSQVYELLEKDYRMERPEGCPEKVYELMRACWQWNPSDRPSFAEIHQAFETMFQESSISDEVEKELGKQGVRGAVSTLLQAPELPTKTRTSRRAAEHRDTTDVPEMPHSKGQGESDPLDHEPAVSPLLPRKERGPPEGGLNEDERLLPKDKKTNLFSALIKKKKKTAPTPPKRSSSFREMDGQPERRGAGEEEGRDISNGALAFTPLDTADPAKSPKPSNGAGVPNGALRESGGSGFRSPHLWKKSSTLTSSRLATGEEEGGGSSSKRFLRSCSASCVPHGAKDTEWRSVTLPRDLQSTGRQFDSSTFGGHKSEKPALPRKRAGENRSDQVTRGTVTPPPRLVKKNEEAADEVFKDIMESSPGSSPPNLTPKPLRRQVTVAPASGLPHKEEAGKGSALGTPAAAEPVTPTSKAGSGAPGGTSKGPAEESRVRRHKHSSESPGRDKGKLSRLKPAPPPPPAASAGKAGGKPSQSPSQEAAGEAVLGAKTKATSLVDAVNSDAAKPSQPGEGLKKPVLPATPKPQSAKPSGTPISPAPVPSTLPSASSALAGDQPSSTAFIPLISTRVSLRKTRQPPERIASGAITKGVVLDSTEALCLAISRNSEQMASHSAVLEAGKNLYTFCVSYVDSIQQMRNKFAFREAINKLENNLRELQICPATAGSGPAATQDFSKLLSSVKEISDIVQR
Method: as §1, §2, §3, §4, §5

[13] = biological target: T11, EGFR (Homo sapiens, UniProt P00533); test: KinaseProfiler protein kinase activity; format: biochemical; conditions: 10 μM X-370
T11 construct: purchased Millipore KinaseProfiler
Method: as §1, §2, §3, §4, §5

[14] = biological target: T12, PKC μ (Homo sapiens, UniProt Q15139); test: KinaseProfiler protein kinase activity; format: biochemical; conditions: 10 μM X-370
T12 construct: purchased Millipore KinaseProfiler
Method: as §1, §2, §3, §4, §5

[15] = biological target: T13, mTOR (Homo sapiens, UniProt P42345); test: KinaseProfiler protein kinase activity; format: biochemical; conditions: 10 μM X-370
T13 construct: purchased Millipore KinaseProfiler
Method: as §1, §2, §3, §4, §5

[16] = biological target: T14, Aurora-A (Homo sapiens, UniProt O14965); test: KinaseProfiler protein kinase activity; format: biochemical; conditions: 10 μM X-370
T14 construct: purchased Millipore KinaseProfiler
T14 sequence (O14965 whole entry): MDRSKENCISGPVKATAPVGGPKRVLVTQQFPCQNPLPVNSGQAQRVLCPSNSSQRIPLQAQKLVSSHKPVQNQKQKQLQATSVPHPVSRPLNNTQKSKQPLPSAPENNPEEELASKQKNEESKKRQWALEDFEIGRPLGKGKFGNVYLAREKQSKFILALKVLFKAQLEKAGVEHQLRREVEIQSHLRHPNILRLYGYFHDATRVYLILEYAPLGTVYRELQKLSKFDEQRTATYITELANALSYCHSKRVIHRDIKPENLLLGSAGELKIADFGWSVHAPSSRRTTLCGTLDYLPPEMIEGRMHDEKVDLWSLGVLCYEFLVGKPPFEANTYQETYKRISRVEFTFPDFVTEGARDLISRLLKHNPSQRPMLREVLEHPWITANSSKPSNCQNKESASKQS
Method: as §1, §2, §3, §4, §5

[17] = biological target: T15, Rsk1 (Homo sapiens, UniProt Q15418); test: KinaseProfiler protein kinase activity; format: biochemical; conditions: 10 μM X-370
T15 construct: purchased Millipore KinaseProfiler
T15 sequence (Q15418 whole entry): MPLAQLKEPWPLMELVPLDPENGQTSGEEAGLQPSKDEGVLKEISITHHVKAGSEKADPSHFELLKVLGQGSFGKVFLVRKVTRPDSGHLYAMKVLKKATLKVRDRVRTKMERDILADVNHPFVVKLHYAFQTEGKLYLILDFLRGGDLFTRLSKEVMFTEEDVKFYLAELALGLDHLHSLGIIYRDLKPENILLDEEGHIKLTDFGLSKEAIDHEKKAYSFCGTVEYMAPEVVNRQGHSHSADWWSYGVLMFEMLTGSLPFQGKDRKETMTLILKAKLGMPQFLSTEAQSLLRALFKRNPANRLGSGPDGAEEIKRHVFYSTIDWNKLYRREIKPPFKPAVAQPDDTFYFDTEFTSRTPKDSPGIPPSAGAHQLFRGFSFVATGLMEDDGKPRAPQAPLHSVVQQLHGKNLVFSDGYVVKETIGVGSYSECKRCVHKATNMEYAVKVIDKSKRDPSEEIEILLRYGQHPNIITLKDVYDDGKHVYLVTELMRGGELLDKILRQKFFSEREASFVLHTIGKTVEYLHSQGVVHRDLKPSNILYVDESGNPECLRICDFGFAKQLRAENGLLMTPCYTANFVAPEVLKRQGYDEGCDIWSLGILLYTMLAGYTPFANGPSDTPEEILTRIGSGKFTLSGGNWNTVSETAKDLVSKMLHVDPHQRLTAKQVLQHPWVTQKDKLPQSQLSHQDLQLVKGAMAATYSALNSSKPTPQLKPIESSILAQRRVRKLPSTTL
Method: as §1, §2, §3, §4, §5

- Kinase activity (% of control) [3]: 85 % of control
- Kinase activity (% of control) [4]: 72 % of control
- Kinase activity (% of control) [5]: 111 % of control
- Kinase activity (% of control) [6]: 90 % of control
- Kinase activity (% of control) [7]: 93 % of control
- Kinase activity (% of control) [8]: 125 % of control
- Kinase activity (% of control) [9]: 81 % of control
- Kinase activity (% of control) [10]: 117 % of control
- Kinase activity (% of control) [11]: 95 % of control
- Kinase activity (% of control) [12]: 130 % of control
- Kinase activity (% of control) [13]: 90 % of control
- Kinase activity (% of control) [14]: 98 % of control
- Kinase activity (% of control) [15]: 47 % of control
- Kinase activity (% of control) [16]: 73 % of control
- Kinase activity (% of control) [17]: 88 % of control
SMILES: O=C(N1CCCC1)N1CCC(n2cnc3c(-n4c(C(F)F)nc5ccccc54)nc(N4CCOCC4)nc32)CC1 [X-370]
- association between PDK1 and MEK1/2 [1]: dissociation of MEK1/2 and PDK1
- activity against all kinases of the panel [2]: little activity
